This is an account of results in PMC6271245, “Discovery of Gramine Derivatives That Inhibit the Early Stage of EV71 Replication in Vitro” (Molecules, 2014).

What all share (type): cell-based
Data set [1] is described as follows: Cytotoxicity on uninfected RD cells, MTT. The settings on record: human, concentration reducing cell viability by 50%. How it is done: Human RD cells and Vero cells were maintained in Dulbecco’s modified Eagle’s medium (Gibco-Invitrogen, Carlsbad, CA, USA) supplemented with 10% fetal bovine serum (FBS; Gibco), 100 U/mL of penicillin and streptomycin, and 2 mM L-glutamine. Enterovirus 71 (EV71) was kindly provided by Zhanqiu Yang (Institute of Medical Virology, School of Medicine, Wuhan University, China) and propagated in RD cell lines. The virus titer was determined by the standard method of median tissue culture infective dose (TCID50) on RD cells.
(§1) The activity of compounds against EV71 was determined based on the inhibition of virus-induced cytopathogenicity effects (CPEs) in acutely infected cells. Vero and RD cells grown to 90% confluency in 96-well dishes were washed with phosphate buffered saline (PBS) and infected with 100 TCID50 of EV71 mixed with serial dilutions of tested compounds for 1.5 h at 37 °C. The inoculum was aspirated and cells were incubated with DMEM and test compounds at 37 °C, 5% CO2 for 48 h. The CPEs were observed microscopically and the viability of the cells was determined with a 3-(4,5-dimethylthiazol-2-yl)-2,5-diphenyltetrazolium bromide (MTT) assay. The concentrations required for the test compounds to achieve 50% protection from virus-induced cytopathogenicity (EC50) were determined. Adverse effects of these compounds on the host cells were also assessed by means of the MTT-method; by exposing uninfected cells to various concentrations of test compounds for 48 h at 37 °C, the viability of the cells was detected. The 50% cell cytotoxic concentrations (CC50) of compounds were calculated with the SPSS software (SPSS, Chicago, IL, USA). Selectivity indexes were calculated as the ratio of CC50: EC50.
(§2) Cell viability was assessed by an MTT assay, which functions based on the reduction of a MTT into formazan dye by active mitochondria. The cells were treated with 100 µL of MTT (1 mg/mL, Sigma, St. Louis, MO, USA) and incubated at 37 °C for 4 h. The reaction was blocked by DMSO and measured in a microplate reader (Bio-Tek Instruments, Winooski, VT, USA) at 492 nm. The untreated control was arbitrarily set as 100%.

For data set [2], the system named is Enterovirus 71 (EV71). The data set is described as follows: Inhibition of EV71-induced cytopathogenicity (CPE) in Vero cells, MTT. Particulars: for EC50: Enterovirus A, read-out: EC50 (µg/mL) Vero; for EC50 / EC50 (µg/mL) Vero: concentration for 50% protection from virus-induced cytopathogenicity, Vero cells, 100 TCID50 EV71, 48 h, MTT, mean ± SD of three experiments. As to the method:
(§3) The antiviral activities of gramine and its derivatives against EV71 based on inhibition of virus-induced cytopathogenicity effects (CPEs) in African green monkey kidney cells (Vero) and rhabdomyosarcoma cells (RD) were examined. The cytotoxic effects were also evaluated. The inhibitory activities expressed as half maximal effective concentration (EC50) values and selectivity indexes (SI) for the target compounds are presented in Table 1, and the dose-dependent antiviral effects are shown in Figure 1A.
Figure 1 Gramine and its synthetic derivatives inhibited virus-induced CPE. (A) Vero cells were infected with 100 TCID50 of EV71 mixed with serial dilutions of tested compounds for 1.5 h at 37 °C; the inoculum was aspirated and cells were incubated with DMEM/tested compounds at 37 °C, 5% CO2 for 48 h pi. The viability of the cells was determined with an MTT assay; (B) Morphology image of Vero and RD cells treated with compounds 4a, 4i, 4r, and 4s for 48 h pi. (magnification, 20×).
as §1, §2
In general terms: Protection from cytopathic effect is a common read-out in antiviral testing.

Data set [3] is described as follows: Cytotoxicity on uninfected Vero cells, MTT. Particulars: African green monkey. As to the method: as §3, §1, §2
For data set [4], the system named is Enterovirus 71 (EV71). The data set can be described thus: Inhibition of EV71-induced cytopathogenicity (CPE) in RD cells, MTT. The settings on record: concentration for 50% protection from virus-induced cytopathogenicity, RD cells, 100 TCID50 EV71, 48 h, MTT; for EC50: Enterovirus A, read-out: EC50 (µg/mL) RD. How it is done:
as §3, §1, §2

[5] abbreviates: concentration reducing cell viability by 50%, uninfected Vero cells, 48 h, MTT, read-out: CC50 (µg/mL) Vero.

The structures appear in SMILES notation. Values after ≈ are worked out from the molar mass of the structure shown.

Take `Clc1ccccc1C(Nc1ccccn1)c1c[nH]c2ccccc12` (centres unmarked) [Compound 4b]: the CC50 at 48 h in data set [1] came to 22.8 ± 1.7 µg/mL (≈ 68.3 µM); in data set [3] (setting [5]) it was 18.6 ± 1.4 µg/mL (≈ 55.7 µM). The EC50 came to 5.1 ± 2.7 µg/mL (≈ 15.3 µM) in the data set on Enterovirus 71 (EV71) [2] and 7.4 ± 1.1 µg/mL (≈ 22.2 µM) in the data set with Enterovirus 71 (EV71) [4].
Regarding `Clc1ccc(C(Nc2ccccn2)c2c[nH]c3ccccc23)cc1` (centres unmarked) [Compound 4c], the values for the CC50 at 48 h in data set [1] and in data set [3] (setting [5]) were 24.6 ± 3.5 µg/mL (≈ 73.7 µM) and 22.4 ± 3.6 µg/mL (≈ 67.1 µM), respectively. For the same compound, the EC50 in the data set with Enterovirus 71 (EV71) [2] came out at 5.6 ± 1.3 µg/mL (≈ 16.8 µM); with Enterovirus 71 (EV71) [4], 6.7 ± 0.8 µg/mL (≈ 20.1 µM).
On the same counts, the results for `Fc1ccccc1C(Nc1ccccn1)c1c[nH]c2ccccc12` (centres unmarked) [Compound 4d] are 28 ± 5.2 µg/mL (≈ 88.2 µM), 37.8 ± 5.8 µg/mL (≈ 119 µM), 9.2 ± 2.1 µg/mL (≈ 29 µM) and 5.8 ± 1.4 µg/mL (≈ 18.3 µM).
On the same counts, the results for `Fc1ccc(C(Nc2ccccn2)c2c[nH]c3ccccc23)cc1` (centres unmarked) [Compound 4e] are 29.5 ± 3.3 µg/mL (≈ 93 µM), 40.7 ± 2.5 µg/mL (≈ 128 µM), 7.3 ± 2.6 µg/mL (≈ 23 µM) and 6.2 ± 2.8 µg/mL (≈ 19.5 µM).
With `Cn1cc(C(Nc2ccccn2)c2ccccc2Cl)c2ccccc21` (centres unmarked) [Compound 4f], the results for the CC50 at 48 h in data set [1] and in data set [3] (setting [5]) were 44 ± 5.1 µg/mL (≈ 126 µM) and 86.4 ± 7.4 µg/mL (≈ 248 µM), respectively. Moreover, the EC50 in the data set with Enterovirus 71 (EV71) [2] was 14.4 ± 3.2 µg/mL (≈ 41.4 µM). Moreover, the “EC50 (µg/mL) RD” value with Enterovirus 71 (EV71) [4] is reported as “— (less than 50% inhibition)”.
On to `Cn1cc(C(Nc2ccccn2)c2ccc(Cl)cc2)c2ccccc21` (centres unmarked) [Compound 4g], for which the CC50 at 48 h in data set [1] is 32 ± 1.8 µg/mL (≈ 92 µM); in data set [3] (setting [5]), 38.6 ± 5.7 µg/mL (≈ 111 µM). The EC50 in the data set on Enterovirus 71 (EV71) [2] is 4.9 ± 0.7 µg/mL (≈ 14.1 µM); in the data set with Enterovirus 71 (EV71) [4] it was 4.9 ± 1.2 µg/mL (≈ 14.1 µM).
Take `Cn1cc(C(Nc2ccccn2)c2ccccc2F)c2ccccc21` (centres unmarked) [Compound 4h]: the CC50 at 48 h turned out to be 52.2 ± 8.3 µg/mL (≈ 158 µM) in data set [1] and 89.3 ± 12.6 µg/mL (≈ 269 µM) in data set [3] (setting [5]). Also, the EC50 was 10.5 ± 2.1 µg/mL (≈ 31.7 µM) in the data set with Enterovirus 71 (EV71) [2] and 11.2 ± 4.6 µg/mL (≈ 33.8 µM) in the data set on Enterovirus 71 (EV71) [4].
Taken in the same sequence, the figures for `FC(F)(F)c1ccc(C(Nc2ccccn2)c2c[nH]c3ccccc23)cc1` (centres unmarked) [Compound 4j] were 17.8 ± 2.6 µg/mL (≈ 48.5 µM), 15.8 ± 3.3 µg/mL (≈ 43 µM), 8.7 ± 2.9 µg/mL (≈ 23.7 µM) and 8.3 ± 3.5 µg/mL (≈ 22.6 µM).
On the same counts, the results for `Cn1cc(C(Nc2ccccn2)c2ccc(C(F)(F)F)cc2)c2ccccc21` (centres unmarked) [Compound 4k] are 27.6 ± 8.3 µg/mL (≈ 72.4 µM), 18.5 ± 4.8 µg/mL (≈ 48.5 µM), 13.2 ± 1.3 µg/mL (≈ 34.6 µM) and 9.8 ± 3.4 µg/mL (≈ 25.7 µM).
`c1ccc(NC(c2ccccn2)c2c[nH]c3ccccc23)nc1` (centres unmarked) [Compound 4l]: the CC50 at 48 h in data set [1] was 65.2 ± 9.1 µg/mL (≈ 217 µM); in data set [3] (setting [5]), 96.2 ± 15.5 µg/mL (≈ 320 µM). Further, the “EC50 (µg/mL) Vero” value in the data set on Enterovirus 71 (EV71) [2] is recorded as “— (less than 50% inhibition)”. The “EC50 (µg/mL) RD” value in the data set with Enterovirus 71 (EV71) [4] was “— (less than 50% inhibition)”.
As to `Cn1cc(C(Nc2ccccn2)c2ccccn2)c2ccccc21` (centres unmarked) [Compound 4m], the CC50 at 48 h in data set [1] and in data set [3] (setting [5]) was over 200 µg/mL in each case. In addition, the “EC50 (µg/mL) Vero” value with Enterovirus 71 (EV71) [2] was “— (less than 50% inhibition)”. The “EC50 (µg/mL) RD” value in the data set with Enterovirus 71 (EV71) [4] was “— (less than 50% inhibition)”.
For the compound `c1ccc(NC(c2ccncc2)c2c[nH]c3ccccc23)nc1` (centres unmarked) [Compound 4n], the results for the CC50 at 48 h in data set [1] and in data set [3] (setting [5]) were over 200 µg/mL and 121 ± 20.5 µg/mL (≈ 402 µM), respectively. In the data set on Enterovirus 71 (EV71) [2], the “EC50 (µg/mL) Vero” value was “— (less than 50% inhibition)”. Besides, the “EC50 (µg/mL) RD” value with Enterovirus 71 (EV71) [4] is listed as “— (less than 50% inhibition)”.
For `Cn1cc(C(Nc2ccccn2)c2ccncc2)c2ccccc21` (centres unmarked) [Compound 4o], the CC50 at 48 h was found to be 39.2 ± 11.6 µg/mL (≈ 125 µM) in data set [1] and 72.8 ± 18.8 µg/mL (≈ 232 µM) in data set [3] (setting [5]). Also, the EC50 came out at 16.9 ± 1.5 µg/mL (≈ 53.8 µM) in the data set with Enterovirus 71 (EV71) [2] and 9.5 ± 1.7 µg/mL (≈ 30.2 µM) in the data set with Enterovirus 71 (EV71) [4].
On the same counts, the results for `Clc1ccccc1C(Nc1nc2ccccc2s1)c1c[nH]c2ccccc12` (centres unmarked) [Compound 4p] are 11.7 ± 4.6 µg/mL (≈ 30 µM), 6.6 ± 1.4 µg/mL (≈ 16.9 µM), 2.1 ± 0.7 µg/mL (≈ 5.39 µM) and 3.2 ± 0.4 µg/mL (≈ 8.21 µM).
Taken in the same sequence, the figures for `Fc1ccccc1C(Nc1nc2ccccc2s1)c1c[nH]c2ccccc12` (centres unmarked) [Compound 4q] were 14.5 ± 3.6 µg/mL (≈ 38.8 µM), 10.8 ± 2.5 µg/mL (≈ 28.9 µM), 1.8 ± 1.1 µg/mL (≈ 4.82 µM) and 2.7 ± 1.2 µg/mL (≈ 7.23 µM).
Regarding `Fc1ccc(C(c2c[nH]c3ccccc23)n2cccn2)cc1` (centres unmarked) [Compound 4t], the CC50 at 48 h in data set [1] came out at 12.6 ± 3.5 µg/mL (≈ 43.3 µM); in data set [3] (setting [5]) it was 10.5 ± 2.4 µg/mL (≈ 36 µM). In addition, the EC50 came to 1.9 ± 0.6 µg/mL (≈ 6.52 µM) in the data set with Enterovirus 71 (EV71) [2] and 2.6 ± 0.8 µg/mL (≈ 8.92 µM) in the data set with Enterovirus 71 (EV71) [4].
On the same counts, the results for `Fc1ccc(C(c2c[nH]c3ccccc23)n2cncn2)cc1` (centres unmarked) [Compound 4u] are 6.8 ± 2.5 µg/mL (≈ 23.3 µM), 4.9 ± 0.6 µg/mL (≈ 16.8 µM), 2.3 ± 0.3 µg/mL (≈ 7.87 µM) and 3.1 ± 1.3 µg/mL (≈ 10.6 µM).
Regarding `CN(C)Cc1c[nH]c2ccccc12` [Gramine], the CC50 at 48 h worked out at 85 ± 16.3 µg/mL (≈ 488 µM) in data set [1] and 101 ± 5.6 µg/mL (≈ 582 µM) in data set [3]. Besides, the “EC50 (µg/mL) Vero” value with Enterovirus 71 (EV71) [2] is “— ^d (less than 50% inhibition)”. Also, the anti-EV71 activity result in the data set with Enterovirus 71 (EV71) [2] (inhibition of EV71-induced CPEs compared with virus control) is “not observed”. For the same compound, the “EC50 (µg/mL) RD” value with Enterovirus 71 (EV71) [4] was “— (less than 50% inhibition)”.
For the compound `NC(=O)c1ncn([C@@H]2O[C@H](CO)[C@@H](O)[C@H]2O)n1` [ribavirin, reference compound], the CC50 at 48 h in data set [1] is 436 µg/mL (≈ 1780 µM); in data set [3], over 500 µg/mL. Also, the results for the EC50 in the data set with Enterovirus 71 (EV71) [2] and in the data set on Enterovirus 71 (EV71) [4] were 44.6 ± 13.5 µg/mL (≈ 183 µM) and 32.1 µg/mL (≈ 131 µM), respectively.
